Activity calls are given as the source filed them. Numbered stars: 1 amine (or outer) side, 2 acyl side, 3 side chain; on linkers, the order of the positions; unused ones are H or OH. Square brackets hold non-standard residues; d marks the D form. Peptide text beside a SMILES is read from it. * marks the point of attachment. X3 = CC(C)C[C@@H](CN(CC(N)=O)S(=O)(=O)c1ccc(C(F)(F)F)cc1)N*; X2 = CC(C)C[C@H](N)CN(CC(=O)[*:2])[*:1]; X1 = O=S(=O)(c1ccc(C(F)(F)F)cc1)*
What was measured:
[1] = test system: Staphylococcus epidermidis; assay: Antimicrobial activity against Staphylococcus epidermidis ATCC 12228 assessed as inhibition of visible bacterial growth incubated for 18 hrs by broth-dilution method; format: functional
Pseudomonas aeruginosa [2] = assay: Antimicrobial activity against multidrug-resistant Pseudomonas aeruginosa 061 assessed as inhibition of visible bacterial growth incubated for 18 hrs by broth-dilution method; format: functional
Pseudomonas aeruginosa [3] = assay: Bactericidal activity against Pseudomonas aeruginosa ATCC 27853 at 2 to 4 times MIC; format: functional, organism-based
Staphylococcus aureus [4] = assay: Antibiofilm activity against methicillin-resistant Staphylococcus aureus ATCC 33591 assessed as biofilm thickness at 1 times MIC90 incubated for 24 hrs by confocal laser scanning microscopic analysis; format: functional
Pseudomonas aeruginosa [5] = assay: Antimicrobial activity against multidrug-resistant Pseudomonas aeruginosa 085 assessed as inhibition of visible bacterial growth incubated for 18 hrs by broth-dilution method; format: functional
Pseudomonas aeruginosa [6] = assay: Antimicrobial activity against multidrug-resistant Pseudomonas aeruginosa 516 assessed as inhibition of visible bacterial growth incubated for 18 hrs by broth-dilution method; format: functional
Pseudomonas aeruginosa [7] = assay: Synergistic antibacterial activity against Pseudomonas […] assessed as fractional inhibitory concentration index in presence of polymyxin B by checkerboard assay; format: functional
Staphylococcus aureus [8] = assay: Antimicrobial activity against methicillin-resistant Staphylococcus aureus 9 assessed as inhibition of visible bacterial growth incubated for 18 hrs by broth-dilution method; format: functional
Pseudomonas aeruginosa [9] = assay: Antimicrobial activity against multidrug-resistant Pseudomonas aeruginosa 157 assessed as inhibition of visible bacterial growth incubated for 18 hrs by broth-dilution method; format: functional
Staphylococcus aureus [10] = assay: Antimicrobial activity against Staphylococcus aureus ATCC 25923 assessed as reduction in bacterial growth in presence of human serum; format: functional
Staphylococcus aureus [11] = assay: Antimicrobial activity against methicillin-resistant Staphylococcus aureus 1 assessed as inhibition of visible bacterial growth incubated for 18 hrs by broth-dilution method; format: functional
Pseudomonas aeruginosa [12] = assay: Antimicrobial activity against Pseudomonas aeruginosa ATCC 27853 assessed as fold increase in MIC in presence of human serum; format: functional
Staphylococcus aureus [13] = assay: Antibiofilm activity against Staphylococcus aureus ATCC 25923 assessed as inhibition of biofilm formation at 4 to 8 microg/ml incubated for 24 hrs by crystal violet staining based analysis; format: functional; details: dose 4-8 µg/ml, at 4 to 8 µg/mL
Staphylococcus aureus [14] = assay: Antimicrobial activity against methicillin-resistant Staphylococcus aureus 2 assessed as inhibition of visible bacterial growth incubated for 18 hrs by broth-dilution method; format: functional
Salmonella typhimurium = assay: Antimicrobial activity against Salmonella typhimurium ATCC 14028 assessed as inhibition of visible bacterial growth incubated for 18 hrs by broth-dilution method; format: functional, Salmonella enterica subsp. enterica serovar Typhimurium; details: Salmonella enterica
Pseudomonas aeruginosa [15] = assay: Antimicrobial activity against multidrug-resistant Pseudomonas aeruginosa 119 assessed as inhibition of visible bacterial growth incubated for 18 hrs by broth-dilution method; format: functional
Cell membrane [16] = assay: Disruption of membrane integrity in Pseudomonas aeruginosa ATCC 27853 incubated for 30 mins by PI staining based CLSM analysis
Pseudomonas aeruginosa [17] = assay: Antimicrobial activity against Pseudomonas aeruginosa ATCC 27853 at 1 times MIC incubated for 18 hrs in presence of LPS/LTA; format: functional, organism-based
Pseudomonas aeruginosa [18] = assay: Antibiofilm activity against Pseudomonas aeruginosa ATCC 27853 assessed as biofilm thickness at 2 times MIC90 incubated for 24 hrs by confocal laser scanning microscopic analysis; format: functional
Pseudomonas aeruginosa [19] = assay: Antimicrobial activity against Pseudomonas aeruginosa ATCC 27853 assessed as reduction in microbial growth in presence of human serum; format: functional
Staphylococcus aureus [20] = assay: Antimicrobial activity against Staphylococcus aureus ATCC 25923 assessed as fold increase in MIC in presence of human serum; format: functional
Staphylococcus aureus [21] = assay: Antimicrobial activity against methicillin-resistant Staphylococcus aureus ATCC 33591 assessed as reduction in bacterial growth in presence of human serum; format: functional
Cell membrane [22] = assay: Disruption of membrane integrity in Staphylococcus aureus ATCC 33591 incubated for 30 mins by PI staining based CLSM analysis; format: cell membranes
Pseudomonas aeruginosa [23] = assay: Antimicrobial activity against multidrug-resistant Pseudomonas aeruginosa 156 assessed as inhibition of visible bacterial growth incubated for 18 hrs by broth-dilution method; format: functional
Staphylococcus aureus [24] = assay: Antimicrobial activity against methicillin-resistant Staphylococcus aureus 10 assessed as inhibition of visible bacterial growth incubated for 18 hrs by broth-dilution method; format: functional
Pseudomonas aeruginosa [25] = assay: Antibiofilm activity against Pseudomonas aeruginosa ATCC 27853 assessed as inhibition of biofilm formation at 4 to 8 microg/ml incubated for 24 hrs by crystal violet staining based analysis; format: functional; details: dose 4-8 µg/ml, at 4 to 8 µg/mL
Pseudomonas aeruginosa [26] = assay: Antimicrobial activity against Pseudomonas aeruginosa ATCC 27853 assessed as inhibition of visible bacterial growth incubated for 18 hrs by broth-dilution method; format: functional
Pseudomonas aeruginosa [27] = assay: Antimicrobial activity against multidrug-resistant Pseudomonas aeruginosa 124 assessed as inhibition of visible bacterial growth incubated for 18 hrs by broth-dilution method; format: functional
Erythrocyte = assay: Hemolytic activity against mouse Red blood cell incubated for 1 hr; format: toxicity, cell-based
Staphylococcus aureus [28] = assay: Antibiofilm activity against methicillin-resistant Staphylococcus aureus ATCC 33591 assessed as biofilm thickness at 2 times MIC90 incubated for 24 hrs by confocal laser scanning microscopic analysis; format: functional
Staphylococcus aureus [29] = assay: Antimicrobial activity against Staphylococcus aureus ATCC 25923 assessed as reduction in bacterial growth in presence of Ca2+; format: functional
Staphylococcus aureus [30] = assay: Antibiofilm activity against methicillin-resistant Staphylococcus aureus ATCC 33591 assessed as inhibition of biofilm formation at 4 to 8 microg/ml incubated for 24 hrs by crystal violet staining based analysis; format: functional; details: dose 4-8 µg/ml, at 4 to 8 µg/mL
Pseudomonas aeruginosa [31] = assay: Antimicrobial activity against multidrug-resistant Pseudomonas aeruginosa 050 assessed as inhibition of visible bacterial growth incubated for 18 hrs by broth-dilution method; format: functional
Staphylococcus aureus [32] = assay: Antimicrobial activity against Staphylococcus aureus ATCC 33591 at 1 times MIC incubated for 18 hrs in presence of LPS/LTA; format: functional, organism-based
Staphylococcus aureus [33] = assay: Antimicrobial activity against methicillin-resistant Staphylococcus aureus 6 assessed as inhibition of visible bacterial growth incubated for 18 hrs by broth-dilution method; format: functional
Staphylococcus aureus [34] = assay: Antimicrobial activity against methicillin-resistant Staphylococcus aureus 5 assessed as inhibition of visible bacterial growth incubated for 18 hrs by broth-dilution method; format: functional
Pseudomonas aeruginosa [35] = assay: Bactericidal activity against Pseudomonas aeruginosa ATCC 27853 assessed as reduction in viable bacteria at 4 times MIC measured for 5 min by time-kill assay; format: functional, organism-based
Acinetobacter baumannii = assay: Antimicrobial activity against Acinetobacter baumannii ATCC 19606 assessed as inhibition of visible bacterial growth incubated for 18 hrs by broth-dilution method; format: functional
Staphylococcus aureus [36] = assay: Antimicrobial activity against methicillin-resistant Staphylococcus aureus ATCC 33591 assessed as inhibition of visible bacterial growth incubated for 18 hrs by broth-dilution method; format: functional
[37] = test system: Staphylococcus epidermidis; assay: Antibiofilm activity against Staphylococcus epidermidis ATCC 12228 assessed as inhibition of biofilm formation at 4 to 8 microg/ml incubated for 24 hrs by crystal violet staining based analysis; format: functional; details: dose 4-8 µg/ml, at 4 to 8 µg/mL
Staphylococcus aureus [38] = assay: Additive antibacterial activity against methicillin-resistant Staphylococcus aureus S5 assessed as fractional inhibitory concentration index in presence of amoxicillin by checkerboard assay; format: functional
Pseudomonas aeruginosa [39] = assay: Antimicrobial activity against multidrug-resistant Pseudomonas aeruginosa 125 assessed as inhibition of visible bacterial growth incubated for 18 hrs by broth-dilution method; format: functional
Staphylococcus aureus [40] = assay: Bactericidal activity against Staphylococcus aureus ATCC 33591 at 2 to 4 times MIC; format: functional, organism-based

CC(C)C[C@H](N)CN(CC(=O)N[C@@H](CCCCN)C(=O)N[C@@H](CC(C)C)C(=O)N[C@@H](CC(C)C)C(=O)N[C@@H](CCCCN)C(=O)N[C@@H](CCCCN)C(=O)N[C@@H](CC(C)C)C(=O)N[C@@H](CC(C)C)C(N)=O)S(=O)(=O)c1ccc(C(F)(F)F)cc1 (X1-[X2]KLLKKLL-NH2)
50%: inhibition (INH) (Staphylococcus aureus [13]) | inhibition (INH) (Pseudomonas aeruginosa [25]) | inhibition (INH) (Staphylococcus aureus [30]) | inhibition (INH) [37]
16 µg/mL: MIC (Acinetobacter baumannii)
256 µg/mL: MHC (Erythrocyte)
active: Activity (Pseudomonas aeruginosa [3]) | Activity (Cell membrane [16]) | Activity (Cell membrane [22]) | Activity (Pseudomonas aeruginosa [35]) | Activity (Staphylococcus aureus [40])
1: fractional inhibitory concentration index (FICI) (Staphylococcus aureus [38])
32 µg/mL: MIC (Staphylococcus aureus [29])
40 um: Activity (Staphylococcus aureus [4])
2: fold change (FC) (Pseudomonas aeruginosa [12]) | fold change (FC) (Staphylococcus aureus [20])
20 um: Activity (Pseudomonas aeruginosa [18]) | Activity (Staphylococcus aureus [28])
inactive: Activity (Pseudomonas aeruginosa [17]) | Activity (Staphylococcus aureus [32])
0.5: fractional inhibitory concentration index (FICI) (Pseudomonas aeruginosa [7])
4 µg/mL: MIC [1] | MIC (Pseudomonas aeruginosa [6]) | MIC (Pseudomonas aeruginosa [9]) | MIC (Staphylococcus aureus [11]) | MIC (Staphylococcus aureus [14]) | MIC (Pseudomonas aeruginosa [23]) | MIC (Pseudomonas aeruginosa [26]) | MIC (Pseudomonas aeruginosa [27]) | MIC (Pseudomonas aeruginosa [31]) | MIC (Staphylococcus aureus [33]) | MIC (Staphylococcus aureus [34]) | MIC (Staphylococcus aureus [36])
8 µg/mL: MIC (Pseudomonas aeruginosa [2]) | MIC (Pseudomonas aeruginosa [5]) | MIC (Staphylococcus aureus [8]) | MIC (Staphylococcus aureus [10]) | MIC (Salmonella typhimurium) | MIC (Pseudomonas aeruginosa [15]) | MIC (Pseudomonas aeruginosa [19]) | MIC (Staphylococcus aureus [21]) | MIC (Staphylococcus aureus [24]) | MIC (Pseudomonas aeruginosa [39])

CC(C)C[C@@H](CN(CC(N)=O)S(=O)(=O)c1ccc(C(F)(F)F)cc1)NC(=O)[C@H](CCCCN)NC(=O)[C@H](CCCCN)NC(=O)[C@H](CC(C)C)NC(=O)[C@H](CC(C)C)NC(=O)[C@H](CCCCN)NC(=O)[C@H](CC(C)C)NC(=O)[C@@H](N)Cc1ccccc1 (H-FLKLLKK-X3)
20 um: Activity (Pseudomonas aeruginosa [18]) | Activity (Staphylococcus aureus [28])
0.75: fractional inhibitory concentration index (FICI) (Pseudomonas aeruginosa [7])
8 µg/mL: MIC (Pseudomonas aeruginosa [2]) | MIC (Staphylococcus aureus [8]) | MIC (Pseudomonas aeruginosa [9]) | MIC (Staphylococcus aureus [10]) | MIC (Staphylococcus aureus [11]) | MIC (Pseudomonas aeruginosa [15]) | MIC (Pseudomonas aeruginosa [19]) | MIC (Staphylococcus aureus [21]) | MIC (Staphylococcus aureus [24]) | MIC (Pseudomonas aeruginosa [26]) | MIC (Pseudomonas aeruginosa [27]) | MIC (Staphylococcus aureus [34])
active: Activity (Pseudomonas aeruginosa [3]) | Activity (Cell membrane [16]) | Activity (Cell membrane [22]) | Activity (Pseudomonas aeruginosa [35]) | Activity (Staphylococcus aureus [40])
inactive: Activity (Pseudomonas aeruginosa [17]) | Activity (Staphylococcus aureus [32])
32 µg/mL: MIC (Staphylococcus aureus [29])
4 µg/mL: MIC [1] | MIC (Staphylococcus aureus [14]) | MIC (Staphylococcus aureus [33]) | MIC (Staphylococcus aureus [36])
256 µg/mL: MHC (Erythrocyte)
50%: inhibition (INH) (Staphylococcus aureus [13]) | inhibition (INH) (Pseudomonas aeruginosa [25]) | inhibition (INH) (Staphylococcus aureus [30]) | inhibition (INH) [37]
0.5: fractional inhibitory concentration index (FICI) (Staphylococcus aureus [38])
40 um: Activity (Staphylococcus aureus [4])
2: fold change (FC) (Pseudomonas aeruginosa [12]) | fold change (FC) (Staphylococcus aureus [20])
16 µg/mL: MIC (Pseudomonas aeruginosa [5]) | MIC (Pseudomonas aeruginosa [6]) | MIC (Salmonella typhimurium) | MIC (Pseudomonas aeruginosa [23]) | MIC (Pseudomonas aeruginosa [31]) | MIC (Acinetobacter baumannii) | MIC (Pseudomonas aeruginosa [39])
